Consider two molecules from patent publication US9802903B2, “Process for preparing antiviral compound” (AbbVie Inc., priority 2010, dated 2017).

The data set can be described thus: Ames test (mutagenic potential). The data set is classed as cell-based. To be noted: genotoxic testing of process compounds. An excerpt: As discussed above, compound I (including salts thereof) is useful as a drug for treating HCV in humans. Thus, it is important that it be so prepared that it is safe for administration to humans. As one skilled in the art would understand, one aspect of drug safety is the minimization of the amount of genotoxic impurities that are associated with the production of a given drug, and, can therefore also be present in the drug product. A couple of well established tests are used to measure the genotoxicity of chemical compounds. One such test is the computer-based Derek analysis, and the other—the Ames test, which is a biological assay that assesses the mutagenic potential of chemical compounds.
(The Ames test detects mutagens through reverse mutation in bacteria.)

For the molecule `CS(=O)(=O)Nc1ccc(I)cc1` [Compound 2a, N-(4-iodophenyl)methanesulfonamide], the Ames test result is “negative”.

Take `Nc1ccc(I)cc1` [Compound 1a, 4-iodoaniline]: the Ames test result is reported as “negative”.
